Test results reported in patent publication US9271969B2, “Compounds as inhibitors of diacylglycerol O-acyltransferase type 1 enzyme” (KAINOS MEDICINE, INC., priority 2012, dated 2016).

Tests used:
human DGAT1 = human DGAT1 (Homo sapiens (Human), UniProt O75907); assay: biochemical
Method: For this assay, a source of DGAT1 was needed. In that regard, a commercially available plasmid for expression of DGAT1 (e.g., pCMV6-recombinant human DGAT1 plasmid) was transfected for 24 hours in Hep3B cells. After transfection of the plasmid, human DGAT-1 expression was analyzed by Western blot or RT-PCR using whole cell extracts. […] Human and mouse DGAT activity were determined as follows.
The plates were sealed, incubated overnight and counted the next morning on a liquid scintillation counter and luminometer.
DGAT1 catalyzes the transfer of the radiolabelled decanoyl group onto the sn-3 position of didecanoyl glycerol. The resultant radiolabeled tridecanoyl glycerol (tricaprin) preferentially binds to the hydrophobic coating on the phospholipid-coated radiometric assay plate. The proximity of the radiolabeled product to the solid scintillant incorporated into the bottom of the radiometric assay plate induced for release from the scintillant, which was measured in the liquid scintillation counter and luminometer.
IC50 values of the compounds were determined from concentration-dependent inhibition curves by using commercially available software.

mouse DGAT1 = mouse DGAT1 (Mus musculus (Mouse), UniProt Q9Z2A7); assay: Radiometric DGAT1 assay, mouse liver microsomes; assay type: biochemical; details: mouse liver microsomes having mouse DGAT1 activity
From the text: A second source of DGAT1 activity was human or mouse liver microsomes.

human DGAT1, sequence (O75907 whole entry): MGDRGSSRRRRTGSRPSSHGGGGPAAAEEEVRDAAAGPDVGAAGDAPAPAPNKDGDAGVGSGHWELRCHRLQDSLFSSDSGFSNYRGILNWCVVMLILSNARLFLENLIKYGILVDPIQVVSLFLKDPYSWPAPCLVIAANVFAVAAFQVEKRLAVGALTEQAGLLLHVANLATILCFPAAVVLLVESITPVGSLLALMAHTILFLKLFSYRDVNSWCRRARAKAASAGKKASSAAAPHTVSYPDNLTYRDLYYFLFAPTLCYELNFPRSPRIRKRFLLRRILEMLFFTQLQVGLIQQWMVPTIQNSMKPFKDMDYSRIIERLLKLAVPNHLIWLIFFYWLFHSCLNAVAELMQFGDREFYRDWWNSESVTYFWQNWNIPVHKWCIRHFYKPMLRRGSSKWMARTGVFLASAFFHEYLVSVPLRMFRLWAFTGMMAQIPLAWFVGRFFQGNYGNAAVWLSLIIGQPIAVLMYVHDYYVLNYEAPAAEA
mouse DGAT1, sequence (Q9Z2A7 whole entry): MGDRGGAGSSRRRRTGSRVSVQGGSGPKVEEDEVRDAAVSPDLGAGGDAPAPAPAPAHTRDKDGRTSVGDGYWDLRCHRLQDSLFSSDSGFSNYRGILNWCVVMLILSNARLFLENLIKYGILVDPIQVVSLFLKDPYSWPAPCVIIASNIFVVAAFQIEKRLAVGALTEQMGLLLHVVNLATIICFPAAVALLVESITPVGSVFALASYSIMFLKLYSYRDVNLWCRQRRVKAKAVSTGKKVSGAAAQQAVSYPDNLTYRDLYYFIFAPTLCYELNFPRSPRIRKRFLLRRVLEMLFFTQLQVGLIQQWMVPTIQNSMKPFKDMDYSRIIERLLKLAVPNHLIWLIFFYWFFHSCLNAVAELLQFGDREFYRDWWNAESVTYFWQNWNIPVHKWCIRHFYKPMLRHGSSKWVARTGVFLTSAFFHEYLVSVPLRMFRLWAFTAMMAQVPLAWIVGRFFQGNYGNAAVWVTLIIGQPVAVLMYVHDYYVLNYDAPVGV

Compound | IC50 (human DGAT1) [nM] | IC50 (mouse DGAT1) [nM]
O=C(O)C[C@H]1CC[C@H](c2ccc(-c3ccc4nc(C(=O)NCc5ccc(C(F)(F)F)c(F)c5)cn4c3)cc2)CC1 [Compound 11, 2-((1r,4r)-4-(4-(2-((3-Fluoro-4-(trifluoromethyl)benzyl)carbamoyl)imidazo[1,2-a]pyridin-6-yl)phenyl)cyclohexyl)acetic acid] | < 50 | < 75
COc1ccc(OC(F)(F)F)cc1CNC(=O)c1cn2cc(-c3ccc([C@H]4CC[C@H](CC(=O)O)CC4)cc3)ccc2n1 [Compound 18, 2-((1r,4r)-4-(4-(2-((2-Methoxy-5-(trifluoromethoxy)benzyl)carbamoyl)imidazo[1,2-a]-pyridin-6-yl)phenyl)cyclohexyl)acetic acid] | < 10 | < 1
Cc1ccccc1NC(=O)c1cn2cc(-c3ccc([C@H]4CC[C@H](CC(=O)O)CC4)cc3)ccc2n1 [Compound 32, 2-((1r,4r)-4-(4-(2-(o-Tolylcarbamoyl)imidazo[1,2-a]pyridin-6-yl)phenyl)cyclohexyl)acetic acid] | < 1 | < 1
O=C(O)C[C@H]1CC[C@H](c2ccc(-c3ccc4nc(C(=O)Nc5ccc(F)cc5C(F)(F)F)cn4c3)cc2)CC1 [Compound 33, 2-((1r,4r)-4-(4-(2-((4-Fluoro-2-(trifluoromethyl)phenyl)carbamoyl)imidazo[1,2-a]pyridin-6-yl)phenyl)cyclohexyl)acetic acid] | < 250 | < 750
O=C(O)C[C@H]1CC[C@H](c2ccc(-c3ccc4nc(C(=O)Nc5ccccc5C(F)(F)F)cn4c3)cc2)CC1 [Compound 34, 2-((1r,4r)-4-(4-(2-((2-(Trifluoromethyl)phenyl)carbamoyl)imidazo[1,2-a]pyridin-6-yl)phenyl)cyclohexyl)acetic acid] | < 150 | < 450
O=C(O)C[C@H]1CC[C@H](c2ccc(-c3ccc4nc(C(=O)Nc5ccccc5F)cn4c3)cc2)CC1 [Compound 35, 2-((1r,4r)-4-(4-(2-((2-Fluorophenyl)carbamoyl)imidazo[1,2-a]pyridin-6-yl)phenyl)cyclohexyl)acetic acid] | < 200 | < 550
COc1ccccc1NC(=O)c1cn2cc(-c3ccc([C@H]4CC[C@H](CC(=O)O)CC4)cc3)ccc2n1 [Compound 36, 2-((1r,4r)-4-(4-(2-((2-Methoxyphenyl)carbamoyl)imidazo[1,2-a]pyridin-6-yl)phenyl)cyclohexyl)acetic acid] | < 100 | < 75
Cc1ccccc1CNC(=O)c1cn2cc(-c3ccc([C@H]4CC[C@H](CC(=O)O)CC4)cc3)ccc2n1 [Compound 37, 2-((1r,4r)-4-(4-(2-((2-Methylbenzyl)carbamoyl)imidazo[1,2-a]pyridin-6-yl)phenyl)cyclohexyl)acetic acid] | < 10 | < 50
Cc1cccc(C)c1NC(=O)c1cn2cc(-c3ccc([C@H]4CC[C@H](CC(=O)O)CC4)cc3)ccc2n1 [Compound 38, 2-((1r,4r)-4-(4-(2-((2,6-Dimethylphenyl)carbamoyl)imidazo[1,2-a]pyridin-6-yl)phenyl)cyclohexyl)acetic acid] | < 200 | < 1
O=C(O)C[C@H]1CC[C@H](c2ccc(-c3ccc4nc(C(=O)Nc5cc(F)ccc5F)cn4c3)cc2)CC1 [Compound 39, 2-((1r,4r)-4-(4-(2-((2,5-Difluorophenyl)carbamoyl)imidazo[1,2-a]pyridin-6-yl)phenyl)cyclohexyl)acetic acid] | < 10 | < 1
O=C(O)C[C@H]1CC[C@H](c2ccc(-c3ccc4nc(C(=O)Nc5cc(F)c(F)c(F)c5)cn4c3)cc2)CC1 [Compound 40, 2-((1r,4r)-4-(4-(2-((3,4,5-Trifluorophenyl)carbamoyl)imidazo[1,2-a]pyridin-6-yl)phenyl)cyclohexyl)acetic acid] | < 1 | < 50

Continued, values first:

IC50 (human DGAT1) [nM] | IC50 (mouse DGAT1) [nM] | Compound
< 25 | < 150 | COc1ccc(CNC(=O)c2cn3cc(-c4ccc([C@H]5CC[C@H](CC(=O)O)CC5)cc4)ccc3n2)cc1 [Compound 12, 2-((1r,4r)-4-(4-(2-((4-Methoxybenzyl)carbamoyl)imidazo[1,2-a]pyridin-6-yl)-phenyl)cyclohexyl)acetic acid]
< 10 | < 1 | CC(C)c1ccc(CNC(=O)c2cn3cc(-c4ccc([C@H]5CC[C@H](CC(=O)O)CC5)cc4)ccc3n2)cc1 [Compound 19]
< 10 | < 150 | COc1ccc(CNC(=O)c2cn3cc(-c4ccc([C@H]5CC[C@H](CC(=O)O)CC5)cc4)sc3n2)cc1 [Compound 57, 2-((1r,4r)-4-(4-(6-((4-Methoxybenzyl)carbamoyl)imidazo[2,1-b]thiazol-2-yl)phenyl)cyclo-hexyl)acetic acid]
< 100 | < 325 | O=C(O)C[C@H]1CC[C@H](c2ccc(-c3cn4cc(C(=O)NCc5ccc6c(c5)OCO6)nc4s3)cc2)CC1 [Compound 58, 2-((1r,4r)-4-(4-(6-((Benzo[d][1,3]dioxol-5-ylmethyl)carbamoyl)imidazo[2,1-b]thiazol-2-yl)-phenyl)cyclohexyl)acetic acid]
< 25 | < 25 | O=C(O)C[C@H]1CC[C@H](c2ccc(-c3cn4cc(C(=O)NCc5ccc(F)c(OC(F)(F)F)c5)nc4s3)cc2)CC1 [Compound 59, 2-((1r,4r)-4-(4-(6-((4-Fluoro-3-(trifluoromethoxy)benzyl)carbamoyl)imidazo[2,1-b]thiazol-2-yl)phenyl)cyclohexyl)acetic acid]
